Test results: patent US12174172B2, “Method for evaluating the efficacy of a composition in reducing the effects of cancer therapeutics on skin” (Johnson & Johnson Consumer Inc., priority 2019, dated 2024)
Several values for one entry are separate records, joined by “and”; a condition that tells them apart may be missing. Equal values may be shown once. Read-outs that look alike come from different tables or passages of the source. Marks after values point to notes of the source that are not given here.

Legend:
[1] = cited from earlier work; for Cmax: maximal plasma concentration after a single daily-recommended dose, human; for Unbound fraction: unbound to plasma protein
[2] = tested on: filaggrin (FLG); assay: 3D micro-epidermis model (EpiScreen): filaggrin immunostaining; format: cell-based, human; conditions: for FLG expression: Table 1 summary;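 on all read-outs here: human primary epidermal keratinocytes differentiated in high calcium into 3D micro-epidermises, compound-treated for three days, imaged by confocal high-content microscopy, filaggrin staining intensity quantified within actin-segmented structures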
[3] = tested on: Human epidermal keratinocytes cells (HPEKs), 3D micro-epidermis; assay: 3D micro-epidermis model (EpiScreen): epidermis size, toxicity, dose response, classification; format: cell-based; conditions: for effect on desmoglein-1, involucrin and filaggrin expression (dose dependence): 3, 10, 30 nM; for Dose in response: variation of protein expression at 3, 10, 30 nM (EGFRi) or 3, 10, 30, 100 nM (VEGFRi); for Dose in response / Dose/response: markers in brackets; for Dose/response: supplementary table, per run (1st or 2nd Run);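 on all read-outs here: keratinocytes on micropatterned discs in high-calcium medium, drug exposure for three days, then fixation and confocal high-content imaging of actin, nuclei and a marker, vehicle DMSO-matched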
[4] = most frequent cutaneous adverse reaction reported by the FDA Adverse Event Reporting System; cited from earlier work
[5] = tested on: desmoglein-1 (DSG1); assay: 3D micro-epidermis model (EpiScreen): desmoglein-1 immunostaining; format: cell-based, human; conditions: for activation at 0.01 µM: 10 nM, read-out: DSG 10 nM; for DSG-1 expression: Table 1 summary
Experimental: (§1) To assess the effects of such therapy molecules on the epidermis, keratinocytes were grown in the presence of kinase inhibitors during 3 days with high calcium concentration to induce keratinocyte differentiation and generate a 3D-stratified differentiated epidermis. Drug impact on the epidermis development was assessed via different keratinocyte markers including: • Ki-67, an universally expressed protein among proliferating cells and absent in the quiescent cells; • Filaggrin, a filament-associated protein that binds to keratin fibers and is a marker of terminal differentiation; • Desmoglein-1, a component of desmosomes and differentiation marker expressed in all epidermal layer above the basal layer; and • Involucrin, an early differentiation marker expressed in the spinous and granular layers and a protein precursor of the epidermal cornified envelope.
(§2) Human epidermal keratinocytes cells (HPEKs) from a juvenile donor (CellnTec, Switzerland) are cultured in flasks in proliferation medium. Keratinocytes are seeded at passage 6 into EpiScreen™ (Abzena, Cambridge, UK) plates containing collagen 1 coated disc micropatterns (CYTOO, Grenoble, France). Four hours later, unattached cells are washed off and a high calcium medium is added to induce keratinocytes differentiation. The day after, keratinocytes are treated with screening compounds, and Trichostatin A is added at 0.3 μM as an internal positive control. After three days of treatment, micro-epidermises are fixed with a formalin solution 10% for 30 minutes, then permeabilized with 0.1% Triton. Several immunostainings are performed: actin (Acti-Stain 555, PHDH1, Cytoskeleton), nuclei (Hoechst, H3570, Invitrogen), and one biomarker of interest per well either anti-involucrin (HPA055211, Sigma), anti-filaggrin (HPA030189, Sigma) or anti-desmoglein-1 (HPA022128, Sigma). Antibodies are added overnight at 4° C. before staining with secondary antibody, anti-rabbit 488 (711-545-152, Jackson) for 2 hours at room temperature.
(§3) Images of each well are acquired with the Operetta HCS platform (Perkin Elmer, Waltham, MA, USA) using a ×10 objective in confocal mode in eight z-planes from 2 μm to 44 μm in steps of 6 μm in each of the 3 channels: actin, nuclei, and one biomarker of interest. The first step of the image analysis consists in detecting micro-epidermis structures on the first z-plane by segmenting the actin staining. Micro-epidermis structures are validated based on several area and roundness min and max criteria. Then, the area of each biomarker staining is measured inside the valid micro-epidermis masks through each z-plane. For all homogeneous biomarker staining, their intensity through the different planes is measured.
(§4) The actin network of each micro-epidermis is analyzed in each z-plane in order to determine the average 3D structure edges. The biomarker intensity is measured in each z-plane for each structure, and then averaged with the other results generated in the same well. Based on the data generated in the two previous steps, an average 3D reconstruction image is generated. It consists of a meshwork that delimits the structure edges, and a color scaled volume that corresponds to the biomarkers distribution and expression.
The effect of 8 oncology molecules, selected from first generation EGFRi and pan-kinase inhibitors which mostly target VEGFR and second and third generation therapies targeting main mutations relating to first generation treatment resistance, were assessed in vitro using a 3D micro-epidermis model. The drug incubation concentrations (3, 10, 30, 100 nM) were selected to reflect the clinically relevant (unbound) drug exposures (Table 2). The drug impact was assessed by analysis of tissue size and keratinocyte proliferation using Ki-67 staining and keratinocyte differentiation using filaggrin, desmoglein-1 and involucrin staining. […]

[6] = tested on: involucrin (IVL); assay: 3D micro-epidermis model (EpiScreen): involucrin immunostaining; format: cell-based, human; conditions: for IVL expression: Table 1 summary
Experimental: as §1, §2, §3, §4
The effect of 8 oncology molecules, selected from first generation EGFRi and pan-kinase inhibitors which mostly target VEGFR and second and third generation therapies targeting main mutations relating to first generation treatment resistance, were assessed in vitro using a 3D micro-epidermis model. […] The drug impact was assessed by analysis of tissue size and keratinocyte proliferation using Ki-67 staining and keratinocyte differentiation using filaggrin, desmoglein-1 and involucrin staining.
Size of the epidermis and the expression of the protein junction desmoglein-1 (DSG1), involucrin (IVL) and filaggrin (FLG) was assessed by immunostaining and compared to untreated control. […]

[7] = tested on: desmoglein-1 (DSG1); assay: 3D micro-epidermis model (EpiScreen): desmoglein-1 immunostaining; format: cell-based, human; conditions: 10 μM; supplementary data; Tox = toxic
[8] = tested on: SkinEthic Reconstructed Human Epidermis (RHE); assay: Skin barrier function: trans-epidermal water loss (TEWL) on reconstructed human epidermis; format: cell-based; conditions: SDS 0.5% topical
Experimental: The effect of drugs on the skin barrier function was assessed by measuring trans-epidermal water loss (TEWL) rates on SkinEthicTM Reconstructed Human Epidermis (RHE) model (Episkin, Lyon, France) using Tewitro® TW 24 (Courage+Khazaka electronic GmbH, Köln, Germany). This instrument allows 24 simultaneous measurements on RHE. TEWL was analyzed at 33° C. in an incubator. […] Petrolatum, a highly hydrophobic hydrocarbon, water-repelling and insoluble in water was used to block water evaporation at the RHE surface (negative control). […] DMSO was used in the same proportion in the vehicle. SkinEthicTM RHE (Episkin, Lyon, France), is an in vitro reconstructed human epidermis from normal human keratinocytes cultured on an inert polycarbonate filter at the air-liquid interface, in a chemically defined medium. This model exists at different stages of maturity. This model is histologically similar to in vivo human epidermis. See […].com/SkinEthic%20RHE. The Tewitro® TW 24 is a device that measures water evaporation from cultured tissue sets (wells in a plate with medium) in up to 24 wells simultaneously. See https://www.courage-[…].

[9] = Homo sapiens, 72 h, read-out: FLG 10 nM, 10 nM, supplementary data, two runs
[10] = Table 1 summary of drug effect on epidermis
[11] = Table 1 summary, pro-differentiation / pro-proliferation
[12] = Table 3, 30 nM (EGFRi) or 100 nM (VEGFRi), 3 days, vs untreated control, superscript = significance footnote
[13] = Table 3, pro-proliferation or pro-differentiation
[14] = Homo sapiens, 72 h, supplementary data
[15] = supplementary data, two runs, Tox = toxic
[16] = concentration (afatinib 3, 10, 30 nM; pan-kinase inhibitors 100 nM)
[17] = Homo sapiens, 72 h, 10 nM, supplementary data, two runs, read-out: FLG 10 nM
[18] = 100 nM, supplementary data, two runs, Tox = toxic

| Compound | Cmax [1] | Unbound fraction [1] | FLG 3 nM ([2]; supplementary data) | FLG 30 nM ([2]; supplementary data) | activation at 0.01 µM [2, 9] | FLG expression [2] | effect on desmoglein-1, involucrin and filaggrin expression (dose dependence) [3] | Epidermis size [3, 10] | Classification [3, 11] | Epidermis size [3, 12] | Classification [3, 13] | Dose in response ([3]; Table 3) | Dose/response [3] | Major Skin Effect [4] | DSG 3 nM ([5]; supplementary data) | activation at 0.01 µM [5, 14] | DSG-1 expression [5] | IVL 10 nM ([6]; supplementary data, two runs) | IVL expression [6] | Toxicity at 1 μM ([3]; 1 μM, micro-epidermis) | other results |
| --- | --- | --- | --- | --- | --- | --- | --- | --- | --- | --- | --- | --- | --- | --- | --- | --- | --- | --- | --- | --- | --- |
| C#Cc1cccc(Nc2ncnc3cc(OCCOC)c(OCCOC)cc23)c1 [Erlotinib] | 1600 nM | 5% | 6% | 10% | 0% | Increased | did not affect | Decreased | Pro-differentiation | Decreased^1 | Pro- | No | No | Papulo-pustular | −7% | -2% | Increased | 16% | Increased | – | activation at 0.1 µM ([2]; Homo sapiens, 72 h, read-out: FLG 100 nM, 100 nM, supplementary data, two runs, Tox = toxic): 34%; Toxicity at 1 μM [3]: Yes; DSG 30 nM ([5]; supplementary data): 1%; activation at 0.1 µM ([5]; Homo sapiens, 72 h, 100 nM, supplementary data, Tox = toxic, read-out: DSG 100 nM): 36%; IVL 3 nM ([6]; supplementary data): 13%; IVL 30 nM ([6]; supplementary data): 22%; activation at 0.1 µM ([6]; Homo sapiens, 72 h, 100 nM, supplementary data, two runs, Tox = toxic): 35% |
| CNC(=O)c1cc(Oc2ccc(NC(=O)Nc3ccc(Cl)c(C(F)(F)F)c3)cc2)ccn1 [Sorafenib] | 8180 nM | 0.29% | – | – | -22% | Decreased | – | Decreased | Pro-proliferation | Decreased^2 | Pro- | No | No | Rash | – | -8% | Unchanged | 6% | Unchanged | Yes | FLG 10 μM [2, 15]: Tox; desmoglein-1 expression [5, 16]: do not impact; DSG 10 μM [7]: Tox; IVL 10 μM [6, 15]: Tox; involucrin expression [6, 16]: do not impact |
| sodium dodecyl sulfoxide [SDS] | – | – | – | – | – | – | – | – | – | – | – | – | – | – | – | – | – | – | – | – | increase of the TEWL rate ([8]; day 1): 98%; increase of the TEWL rate ([8]; day 2, afatinib 100 nM in the media): 77%; increase of the TEWL rate ([8]; day 5, afatinib 100 nM in the media): 58%; increase of the TEWL rate ([8]; day 7, afatinib 100 nM in the media): non-significant increase |
| CCN(CC)CCNC(=O)c1c(C)[nH]c(/C=C2\C(=O)Nc3ccc(F)cc32)c1C [Sunitinib] | 75 nM | 5%* | – | – | – | – | – | – | – | – | – | – | – | Palmoplantar | – | 15% | – | 0% | – | No | FLG 10 μM [2, 15]: 101%; activation at 0.01 µM [2, 17]: -5%; micro-epidermis size / epidermal volume ([3]; concentration (afatinib 3-30 nM; pan-kinase inhibitors up to 100 nM)): no effect; DSG 10 μM [7]: 27%; IVL 10 μM [6, 15]: 24% |
| COc1cc2ncnc(Nc3ccc(F)c(Cl)c3)c2cc1NC(=O)/C=C/CN1CCCCC1 [Dacomitinib] | 178 nM | 0.24% | 8% | 31% | – | Increased | dose-dependent manner | Decreased | Pro-differentiation | Unchanged^4 | Pro- | Yes | Yes (DSG, IVL, | Rash | 10.00% | 32% | Increased | 31% | Increased | Yes | Unbound concentration ([1]; unbound plasma concentration, identified or calculated from Cmax and unbound fraction): 0.42 nM and 0.425* nM; FLG 100 nM [2, 18]: Tox; activation at 0.01 µM [2, 17]: 25%; DSG 30 nM ([5]; supplementary data): 54%; DSG 100 nM ([5]; 100 nM, supplementary data, Tox = toxic): Tox; IVL 3 nM ([6]; supplementary data): 15%; IVL 30 nM ([6]; supplementary data): 60%; IVL 100 nM [6, 18]: Tox |
